Measured values published in patent US7879846B2, “Serine hydrolase inhibitors” (Kyorin Pharmaceutical Co.., Ltd., priority 2006, dated 2011).

Target: T1, Human sputum neutrophil elastase (Homo sapiens, UniProt P08246)
T1 construct: purchased Elastin Products Co; host or cells: human sputum (natural source)
T1 sequence (P08246 30-247 limits assumed): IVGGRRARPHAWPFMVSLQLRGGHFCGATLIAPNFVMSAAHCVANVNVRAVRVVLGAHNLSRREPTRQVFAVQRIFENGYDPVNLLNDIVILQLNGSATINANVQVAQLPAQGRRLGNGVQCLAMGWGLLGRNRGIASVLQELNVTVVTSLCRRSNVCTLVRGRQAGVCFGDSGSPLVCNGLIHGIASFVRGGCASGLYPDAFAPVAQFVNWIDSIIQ
Assay: Inhibitor IC50 against human neutrophil elastase (fluorogenic MeOSuc-AAPV-AMC substrate)
Format: biochemical
Conditions: 20 min preincubation, read-out: HNE IC50
Procedure: Determination of Inhibitor IC50 Values Against Human Neutrophil Elastase
Human sputum neutrophil elastase (Elastin Products Co.) was diluted into Assay Buffer A (200 mM Tris pH 7.4, 1 mg/ml BSA) to a working concentration of 0.55 U/ml. […] DMSO alone was used as the negative control. MeOSuc-AAPV-AMC (Bachem) substrate was dissolved in DMSO to 20 mM and further diluted to 1 mM in Assay Buffer A immediately before use. Substrate was added to the elastase assay at a final concentration of 1×10^−4 M. The reaction was allowed to proceed for 20 minutes at room temperature and then quenched with acetic acid at a final concentration of 3% (v/v). […] Fluorescence intensity versus inhibitor concentration was plotted and fit to the Hill equation to quantify IC50 values.

IC50 [nM] | SMILES
61 to 150 | Cc1cccc2nc(-c3cnccn3)oc(=O)c12 [Compound 5]
> 150 | Cc1cccc2nc(-c3cc[n+]([O-])cc3)oc(=O)c12 [Compound 6]
> 150 | O=c1oc(-c2cccs2)nc2ccccc12 [Compound 8]
> 150 | Cc1cccc2nc(-c3ccncc3)oc(=O)c12 [Compound 9]
> 150 | O=c1oc(-c2ccccn2)nc2cc(Cl)cc(Cl)c12 [Compound 11]
61 to 150 | O=c1oc(-c2ccccn2)nc2cccc(Cl)c12 [Compound 12]
> 150 | O=c1oc(-c2cccnc2Oc2ccccc2)nc2cc(Cl)cc(Cl)c12 [Compound 14]
> 150 | O=c1oc(-c2ccccn2)nc2ccccc12 [Compound 17]
> 150 | Cc1cccnc1-c1nc2cccc(C)c2c(=O)o1 [Compound 19]
16 to 60 | Cc1cccc2nc(-c3cccnc3Cl)oc(=O)c12 [Compound 20]
< 15 | COc1ccc(-c2nc3cccc(C)c3c(=O)o2)c(OC)n1 [Compound 22]
61 to 150 | CSc1ncccc1-c1nc2cccc(C)c2c(=O)o1 [Compound 23]
> 150 | Cc1ccc(Sc2ncccc2-c2nc3cccc(C)c3c(=O)o2)cc1 [Compound 24]
16 to 60 | O=c1oc(-c2cccnc2Oc2ccc(Cl)cc2)nc2cccc(Cl)c12 [Compound 25]
61 to 150 | CSc1ncccc1-c1nc2cccc(Cl)c2c(=O)o1 [Compound 27]
61 to 150 | Cc1ccc(Sc2ncccc2-c2nc3cccc(Cl)c3c(=O)o2)cc1 [Compound 28]
16 to 60 | Cc1cccc2nc(-c3cccnc3SCCS(=O)(=O)c3ccccc3)oc(=O)c12 [Compound 29]
16 to 60 | O=c1oc(-c2cccnc2SCCS(=O)(=O)c2ccccc2)nc2cccc(Cl)c12 [Compound 30]
16 to 60 | Cc1cccc2nc(-c3cccnc3N3CCC[C@H]3C(=O)OC(C)(C)C)oc(=O)c12 [Compound 32]

IC50 [nM] | SMILES
16 to 60 | COC(=O)[C@H]1CCCN1c1ncccc1-c1nc2cccc(C)c2c(=O)o1 [Compound 33]
61 to 150 | Cc1cccc2nc(-c3cccnc3F)oc(=O)c12 [Compound 34]
16 to 60 | Cc1cccc2nc(-c3cccnc3Oc3ccc4c(c3)OCO4)oc(=O)c12 [Compound 37]
< 15 | COc1ccc(-c2nc3cccc(Cl)c3c(=O)o2)c(OC)n1 [Compound 38]
> 150 | CCSc1ncccc1-c1nc2cccc(C)c2c(=O)o1 [Compound 40]
> 150 | COc1cccc2nc(-c3cccnc3N(C)CC(=O)OCc3ccccc3)oc(=O)c12 [Compound 41]
> 150 | COc1cccc2nc(-c3cccnc3N3CCC[C@H]3C(=O)OC(C)(C)C)oc(=O)c12 [Compound 42]
> 150 | COC(=O)[C@H]1CCCN1c1ncccc1-c1nc2cccc(OC)c2c(=O)o1 [Compound 43]
> 150 | COc1cccc2nc(-c3cccnc3N3CCN(C)C(C)C3)oc(=O)c12 (stereo not shown) [Compound 45]
> 150 | COCCN(CCOC)c1ncccc1-c1nc2cccc(C)c2c(=O)o1 [Compound 55]
> 150 | Cc1cccc2nc(-c3cccnc3OCCOCCOCCOCc3ccccc3)oc(=O)c12 [Compound 56]
61 to 150 | Cc1cccc2nc(-c3cccnc3OCCOCCOCCOCCO)oc(=O)c12 [Compound 57]
61 to 150 | Cc1cccc2nc(-c3cccnc3OCCOCCOCCOCCOc3ncccc3C(=O)O)oc(=O)c12 [Compound 58]
61 to 150 | Cc1cccc2nc(-c3cccnc3OCCOCCOCCOCCOc3ncccc3-c3nc4cccc(C)c4c(=O)o3)oc(=O)c12 [Compound 59]
> 150 | CCN(CC)CC1CN(c2ncccc2-c2nc3cccc(C)c3c(=O)o2)CCO1 (stereo not shown) [Compound 60]
> 150 | Cc1cccc2nc(-c3cccnc3OCCN(C)C)oc(=O)c12 [Compound 61]
> 150 | Cc1cccc2nc(-c3cccnc3N3CCS(=O)(=O)CC3)oc(=O)c12 [Compound 62]
16 to 60 | CN1CCN(c2ncccc2-c2nc3cccc(C(F)(F)F)c3c(=O)o2)CC1 [Compound 63]
